ChEMBL document CHEMBL1158815, “Sesquiterpene lactones from Centaurea spinosa and their antibacterial and cytotoxic activities” (2005)
≈ marks a conversion by molar mass, not a printed value. Calls of active or inactive are those of the source. The rule behind the calls is not given here.

Assays:
Bacillus cereus = experiment: Antimicrobial activity against Bacillus cereus isolates by microdilution method; type: functional
OVCAR-3 [1] = experiment: Cytotoxicity against human OVCAR-3 cells after 48 hrs by SRB assay; type: functional; settings: OVCAR-3, 48 h
MCF7 [2] = experiment: Cytotoxicity against human MCF7 cells at <40 uM after 48 hrs by SRB assay; type: functional, cell-based
Micrococcus luteus = experiment: Antimicrobial activity against Micrococcus flavus ATCC 10240 by microdilution method; type: functional
Pseudomonas aeruginosa = experiment: Antimicrobial activity against Pseudomonas aeruginosa ATCC 27853 by microdilution method; type: functional, organism-based
Proteus mirabilis = experiment: Antimicrobial activity against Proteus mirabilis isolates by microdilution method; type: functional, organism-based
NCI-H460 [3] = experiment: Cytotoxicity against human H460 cells at <40 uM after 48 hrs by SRB assay; type: functional, cell-based
SF-268 [4] = experiment: Cytotoxicity against human SF268 cells at <40 uM after 48 hrs by SRB assay; type: functional, cell-based
MCF7 [5] = experiment: Cytotoxicity against human MCF7 cells after 48 hrs by SRB assay; type: functional; settings: MCF7, 48 h
Escherichia coli = experiment: Antimicrobial activity against Escherichia coli ATCC 35218 by microdilution method; type: functional, organism-based
DLD-1 [6] = experiment: Cytotoxicity against human DLD1 cells at <40 uM after 48 hrs by SRB assay; type: functional, cell-based
OVCAR-3 [7] = experiment: Cytotoxicity against human OVCAR-3 cells at <40 uM after 48 hrs by SRB assay; type: functional, cell-based
NCI-H460 [8] = experiment: Cytotoxicity against human H460 cells after 48 hrs by SRB assay; type: functional; settings: NCI-H460, 48 h
SF-268 [9] = experiment: Cytotoxicity against human SF268 cells after 48 hrs by SRB assay; type: functional; settings: SF-268, 48 h
DLD-1 [10] = experiment: Cytotoxicity against human DLD1 cells after 48 hrs by SRB assay; type: functional; settings: DLD-1, 48 h
Staphylococcus aureus = experiment: Antimicrobial activity against Staphylococcus aureus ATCC 6538 by microdilution method; type: functional
[11] = read-out: LC50 (the source's name)

Row | SMILES | MIC (Bacillus cereus) [µg/mL] | MIC (Micrococcus luteus) [µg/mL] | MIC (Staphylococcus aureus) [µg/mL] | GI50 (OVCAR-3 [1]) [µM] | Activity (MCF7 [2]) | Activity (Pseudomonas aeruginosa) | Activity (Proteus mirabilis) | Activity (NCI-H460 [3]) | Activity (SF-268 [4]) | GI50 (MCF7 [5]) [µM] | Activity (Escherichia coli) | Activity (DLD-1 [6]) | Activity (OVCAR-3 [7]) | GI50 (SF-268 [9]) [µM] | further results
1 | C=C1C(=O)O[C@@H]2/C=C(\CO)CC/C=C(\C)C[C@H](OC(=O)C(=C)[C@H](O)CO)[C@@H]12 [CNICIN] | 1.25 (≈ 3.3 µM) | 5 (≈ 13.2 µM) |  | 37.4 | inactive | inactive | inactive | inactive | inactive | 37.8 | inactive | inactive | inactive |  | 
2 | CC[C@]1(O)C[C@@H]2CN(CCc3c([nH]c4ccccc34)[C@@](C(=O)OC)(c3cc4c(cc3OC)N(C)[C@H]3[C@@](O)(C(=O)OC)[C@H](OC(C)=O)[C@]5(CC)C=CCN6CC[C@]43[C@@H]65)C2)C1 [VINBLASTINE] |  |  |  | < 0.01 |  |  |  |  |  | < 0.01 |  |  |  | < 0.01 | TGI (OVCAR-3 [1]): < 0.01 µM; CC50 (OVCAR-3 [1]; [11]): 0.92 µM; GI50 (NCI-H460 [8]): < 0.01 µM; TGI (NCI-H460 [8]): 0.35 µM; GI50 (DLD-1 [10]): < 0.01 µM; TGI (DLD-1 [10]): 2.44 µM; CC50 (DLD-1 [10]; [11]): 2.48 µM; TGI (MCF7 [5]): 1.6 µM
3 | CN[C@@H]1[C@H](O[C@H]2[C@H](O[C@H]3[C@H](O)[C@@H](O)[C@H](N=C(N)N)[C@@H](O)[C@@H]3N=C(N)N)O[C@@H](C)[C@]2(O)C=O)O[C@@H](CO)[C@H](O)[C@H]1O [STREPTOMYCIN] | 0.1 (≈ 0.172 µM) | 0.1 (≈ 0.172 µM) | 5 (≈ 8.6 µM) |  |  |  |  |  |  |  |  |  |  |  | 
4 | C=C1C(=O)O[C@@H]2/C=C(\CO)CC/C=C(\C)C[C@H](OC(=O)/C(=C/COC(C)=O)CO)[C@@H]12 | 1.25 (≈ 2.97 µM) | 5 (≈ 11.9 µM) | 5 (≈ 11.9 µM) |  |  | inactive | inactive |  |  |  | inactive |  |  |  | 
5 | C=C1C(=O)O[C@@H]2/C=C(\CO)CC/C=C(\C)C[C@H](OC(=O)C(=C)[C@@H](O)COC(C)=O)[C@@H]12 | 1.25 (≈ 2.97 µM) | 5 (≈ 11.9 µM) | 5 (≈ 11.9 µM) |  |  | inactive | inactive |  |  |  | inactive |  |  |  | 
6 | C=C[C@]1(C)C[C@H](OC(=O)C(=C)[C@@H](O)CO)[C@H]2C(=C)C(=O)O[C@@H]2[C@H]1C(=C)CO | 1.25 (≈ 3.3 µM) | 5 (≈ 13.2 µM) | 5 (≈ 13.2 µM) |  | inactive | inactive | inactive |  | inactive |  | inactive |  |  | 29.3 | 
7 | C=C[C@]1(C)C[C@H](OC(=O)C(=C)[C@@H](O)CO)[C@@H](C(=C)C(=O)OC)[C@H](O)C1C(=C)CO (stereo partly drawn) |  |  | 5 (≈ 12.2 µM) | 31.9 | inactive | inactive | inactive | inactive | inactive |  | inactive | inactive | inactive | 37.6 | 
8 | C=C[C@]1(C)C[C@H](OC(=O)C(=C)[C@@H](O)CO)[C@H]2C(=C)C(=O)O[C@@H]2[C@H]1C(=C)C=O | 1.25 (≈ 3.32 µM) | 0.625 (≈ 1.66 µM) | 5 (≈ 13.3 µM) | 4.7 | inactive | inactive | inactive | inactive | inactive | 10 | inactive | inactive | inactive | 7.7 | GI50 (NCI-H460 [8]): 37 µM; TGI (SF-268 [9]): 38 µM

Further lines, with some results ahead:

Row | MIC (Bacillus cereus) [µg/mL] | MIC (Micrococcus luteus) [µg/mL] | MIC (Staphylococcus aureus) [µg/mL] | SMILES | GI50 (OVCAR-3 [1]) [µM] | Activity (MCF7 [2]) | Activity (Pseudomonas aeruginosa) | Activity (Proteus mirabilis) | Activity (NCI-H460 [3]) | Activity (SF-268 [4]) | GI50 (MCF7 [5]) [µM] | Activity (Escherichia coli) | Activity (DLD-1 [6]) | Activity (OVCAR-3 [7]) | GI50 (SF-268 [9]) [µM] | further results
9 |  | 0.437 (≈ 1 µM) | 3.5 (≈ 8.02 µM) | C=C1C(=O)O[C@@H]2[C@H]1[C@@H](OC(=O)/C(=C/COC(C)=O)CO)C[C@]1(C)[C@@H]2[C@@H](C=O)CC[C@H]1O |  |  | inactive | inactive |  |  |  | inactive |  |  |  | 
10 |  | 5 (≈ 12.7 µM) | 5 (≈ 12.7 µM) | C=C1C(=O)O[C@H]2[C@H]1[C@@H](OC(=O)C(=C)[C@@H](O)CO)C[C@]1(C)[C@@H]2[C@@H](C=O)CC[C@H]1O [MALACITANOLIDE] |  |  | inactive | inactive |  |  |  | inactive |  |  |  | 
11 | 5 (≈ 12.7 µM) | 0.625 (≈ 1.58 µM) | 5 (≈ 12.7 µM) | C=C1C(=O)O[C@H]2[C@H]1[C@@H](OC(=O)C(=C)[C@@H](O)CO)C[C@]1(C)[C@@H]2[C@H](C=O)CC[C@H]1O | 36.4 | inactive | inactive | inactive | inactive | inactive | 31.7 | inactive | inactive | inactive |  | GI50 (NCI-H460 [8]): 32.4 µM
12 |  | 5 (≈ 11.5 µM) | 5 (≈ 11.5 µM) | C=C1C(=O)O[C@H]2[C@H]1[C@@H](OC(=O)C(=C)[C@@H](O)COC(C)=O)C[C@]1(C)[C@@H]2[C@@H](C=O)CC[C@H]1O |  |  | inactive | inactive |  |  |  | inactive |  |  |  | 
